Test results taken from US20230157952A1, “METHOD FOR IMPROVING THE STABILITY OF A PHARMACEUTICAL COMPOSITION COMPRISING A HIGH PENETRATION DRUG, AND THE PHARMACEUTICAL COMPOSITION OBTAINED THEREFROM” (Techfields Inc., priority 2020, published 2023).

Test: Effect of temperature (and pH) on the stability of the solution (purity)
Type: physicochemical

CCN(CC)CCOC(=O)[C@H](C)c1ccc(CC(C)C)cc1.Cl
Purity (%) at day 21 (60° C.) (pH 1.02, 7% solution in water): 0% | Purity(%) at day 21 (5° C.) (pH 1.02, 7% solution in water): 93.1 ± 0.3% | Purity(%) at day 21 (25° C.) (pH 1.02, 7% solution in water): 70.7 ± 0.4% | Purity(%) at day 21 (40° C.) (pH 1.02, 7% solution in water): 18.5 ± 0.3% | Purity (%) at day 21 (60° C.) (pH 2.09, 7% solution in water): 0% | Purity(%) at day 21 (5° C.) (pH 2.09, 7% solution in water): 97.0 ± 0.4% | Purity(%) at day 21 (25° C.) (pH 2.09, 7% solution in water): 86.0 ± 0.4% | Purity(%) at day 21 (40° C.) (pH 2.09, 7% solution in water): 30.6 ± 0.4% | Purity (%) at day 21 (60° C.) (pH 3.01, 7% solution in water): 8.4 ± 0.3% | Purity(%) at day 21 (25° C.) (pH 3.01, 7% solution in water): 96.1 ± 0.3% | Purity(%) at day 21 (40° C.) (pH 3.01, 7% solution in water): 56.1 ± 0.4% | Purity (%) at day 21 (60° C.) (pH 3.68, 7% solution in water): 16.0 ± 0.4% | Purity(%) at day 21 (40° C.) (pH 3.68, 7% solution in water): 64.1 ± 0.5% | Purity (%) at day 21 (60° C.) (pH 4.07, 7% solution in water): 22.7 ± 0.4% | Purity(%) at day 21 (40° C.) (pH 4.07, 7% solution in water): 72.6 ± 0.4% | Purity (%) at day 21 (60° C.) (pH 4.35, 7% solution in water): 18.3 ± 0.3% | Purity(%) at day 21 (40° C.) (pH 4.35, 7% solution in water): 72.6 ± 0.5% | Purity (%) at day 21 (60° C.) (pH 4.67, 7% solution in water): 10.4 ± 0.5% | Purity(%) at day 21 (25° C.) (pH 4.67, 7% solution in water): 97.5 ± 0.4% | Purity(%) at day 21 (40° C.) (pH 4.67, 7% solution in water): 58.3 ± 0.4% | Purity (%) at day 21 (60° C.) (pH 4.96, 7% solution in water): 4.0 ± 0.3% | Purity(%) at day 21 (5° C.) (pH 4.96, 7% solution in water): 97.0 ± 0.4% | Purity(%) at day 21 (25° C.) (pH 4.96, 7% solution in water): 95.1 ± 0.4% | Purity(%) at day 21 (40° C.) (pH 4.96, 7% solution in water): 50.5 ± 0.5% | Purity (%) at day 21 (60° C.) (pH 5.98, 7% solution in water): 0% | Purity(%) at day 21 (5° C.) (pH 5.98, 7% solution in water): 95.8 ± 0.4% | Purity(%) at day 21 (25° C.) (pH 5.98, 7% solution in water): 90.2 ± 0.4% | Purity(%) at day 21 (40° C.) (pH 5.98, 7% solution in water): 29.9 ± 0.4% | Purity (%) at day 21 (60° C.) (pH 6.99, 7% solution in water): 0% | Purity(%) at day 21 (5° C.) (pH 6.99, 7% solution in water): 90.0 ± 0.5% | Purity(%) at day 21 (25° C.) (pH 6.99, 7% solution in water): 77.1 ± 0.4% | Purity(%) at day 21 (40° C.) (pH 6.99, 7% solution in water): 19.9 ± 0.4% | Purity (%) at day 21 (60° C.) (pH 8.01, 7% solution in water): 0% | Purity(%) at day 0 (pH 8.01, 7% solution in water): 97.6 ± 0.5% | Purity(%) at day 21 (5° C.) (pH 8.01, 7% solution in water): 81.1 ± 0.5% | Purity(%) at day 21 (25° C.) (pH 8.01, 7% solution in water): 52.3 ± 0.4% | Purity(%) at day 21 (40° C.) (pH 8.01, 7% solution in water): 0%

CCN(CC)CCOC(=O)C(C)c1ccc(-c2ccccc2)c(F)c1.Cl (racemic)
Purity(%) at day 21 (5° C.) (7% solution in water, pH 1.0, day 21, 5° C.): 94.0 ± 0.3% | Purity(%) at day 21 (25° C.) (7% solution in water, pH 1.0, day 21, 25° C.): 72.0 ± 0.3% | Purity(%) at day 21 (40° C.) (7% solution in water, pH 1.0, day 21, 40° C.): 18.5 ± 0.3% | Purity (%) at day 21 (60° C.) (7% solution in water, pH 1.0, day 21, 60° C.): 0% | Purity(%) at day 21 (25° C.) (7% solution in water, pH 2.0, day 21, 25° C.): 86.1 ± 0.3% | Purity(%) at day 21 (40° C.) (7% solution in water, pH 2.0, day 21, 40° C.): 30.1 ± 0.4% | Purity (%) at day 21 (60° C.) (7% solution in water, pH 2.0, day 21, 60° C.): 0% | Purity(%) at day 21 (25° C.) (7% solution in water, pH 3.0, day 21, 25° C.): 96.0 ± 0.2% | Purity(%) at day 21 (40° C.) (7% solution in water, pH 3.0, day 21, 40° C.): 56.5 ± 0.3% | Purity (%) at day 21 (60° C.) (7% solution in water, pH 3.0, day 21, 60° C.): 8.7 ± 0.3% | Purity(%) at day 21 (25° C.) (7% solution in water, pH 3.7, day 21, 25° C.): 97.5 ± 0.1% | Purity(%) at day 21 (40° C.) (7% solution in water, pH 3.7, day 21, 40° C.): 64.5 ± 0.3% | Purity (%) at day 21 (60° C.) (7% solution in water, pH 3.7, day 21, 60° C.): 16.2 ± 0.3% | Purity(%) at day 21 (40° C.) (7% solution in water, pH 4.0, day 21, 40° C.): 72.3 ± 0.3% | Purity (%) at day 21 (60° C.) (7% solution in water, pH 4.0, day 21, 60° C.): 22.4 ± 0.3% | Purity(%) at day 21 (40° C.) (7% solution in water, pH 4.3, day 21, 40° C.): 72.2 ± 0.3% | Purity (%) at day 21 (60° C.) (7% solution in water, pH 4.3, day 21, 60° C.): 18.3 ± 0.2% | Purity(%) at day 21 (40° C.) (7% solution in water, pH 4.6, day 21, 40° C.): 58.1 ± 0.4% | Purity (%) at day 21 (60° C.) (7% solution in water, pH 4.6, day 21, 60° C.): 10.4 ± 0.3% | Purity(%) at day 21 (5° C.) (7% solution in water, pH 5.0, day 21, 5° C.): 97.6 ± 0.2% | Purity(%) at day 21 (25° C.) (7% solution in water, pH 5.0, day 21, 25° C.): 96.7 ± 0.2% | Purity(%) at day 21 (40° C.) (7% solution in water, pH 5.0, day 21, 40° C.): 50.1 ± 0.3% | Purity (%) at day 21 (60° C.) (7% solution in water, pH 5.0, day 21, 60° C.): 3.0 ± 0.3% | Purity(%) at day 21 (5° C.) (7% solution in water, pH 6.0, day 21, 5° C.): 95.4 ± 0.2% | Purity(%) at day 21 (25° C.) (7% solution in water, pH 6.0, day 21, 25° C.): 90.5 ± 0.3% | Purity(%) at day 21 (40° C.) (7% solution in water, pH 6.0, day 21, 40° C.): 29.7 ± 0.4% | Purity (%) at day 21 (60° C.) (7% solution in water, pH 6.0, day 21, 60° C.): 0% | Purity(%) at day 21 (5° C.) (7% solution in water, pH 7.0, day 21, 5° C.): 89.7 ± 0.3% | Purity(%) at day 21 (25° C.) (7% solution in water, pH 7.0, day 21, 25° C.): 75.1 ± 0.3% | Purity(%) at day 21 (40° C.) (7% solution in water, pH 7.0, day 21, 40° C.): 19.8 ± 0.3% | Purity (%) at day 21 (60° C.) (7% solution in water, pH 7.0, day 21, 60° C.): 0% | Purity(%) at day 21 (5° C.) (7% solution in water, pH 8.0, day 21, 5° C.): 81.9 ± 0.3% | Purity(%) at day 21 (25° C.) (7% solution in water, pH 8.0, day 21, 25° C.): 52.8 ± 0.3% | Purity(%) at day 21 (40° C.) (7% solution in water, pH 8.0, day 21, 40° C.): 0% | Purity (%) at day 21 (60° C.) (7% solution in water, pH 8.0, day 21, 60° C.): 0%
